Data taken from PubChem BioAssay AID1963860 (Molecular Pharmacology Branch, DTP, NCI, 2024).

Test system: CN0375-F725-PDC KRAS spheroid viability
Assay: Anticancer human tumor CN0375-F725-PDC patient-derived colon carcinoma cell line growth inhibition [KRAS2]
Details: spheroids with HUVEC and MSC; for IC50: curve of first compound; for viability, T/C: stronger effect = lower value
Procedure, shortened: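 KRAS-mutant tumor cells were grown as spheroids with HUVEC endothelial cells and human MSCs as stroma. Targeted agents were tested alone and with KRAS pathway inhibitors. Doses started at or near clinical Cmax, or 10 microM, descending half-log.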

[1] = second compound 0.1 µM, first compound 0.0316 µM
[2] = second compound 0.1 µM, first compound 0.1 µM
[3] = second compound 0.316 µM, first compound 0.0316 µM
[4] = second compound 0.316 µM, first compound 0.1 µM
[5] = second compound 1 µM, first compound 0.0316 µM
[6] = second compound 1 µM, first compound 0.1 µM
[7] = second compound 3.16 µM, first compound 0.0316 µM
[8] = second compound 3.16 µM, first compound 0.1 µM
[9] = second compound 10 µM, first compound 0.0316 µM
[10] = second compound 10 µM, first compound 0.1 µM
[11] = second compound 0.1 µM, first compound 0.316 µM
[12] = second compound 0.1 µM, first compound 1 µM
[13] = second compound 0.1 µM, first compound 3.16 µM
[14] = second compound 0.1 µM, first compound 10 µM
[15] = second compound 0.316 µM, first compound 0.316 µM
[16] = second compound 0.316 µM, first compound 1 µM
[17] = second compound 0.316 µM, first compound 3.16 µM
[18] = second compound 0.316 µM, first compound 10 µM
[19] = second compound 1 µM, first compound 0.316 µM
[20] = second compound 1 µM, first compound 1 µM
[21] = second compound 1 µM, first compound 3.16 µM
[22] = second compound 1 µM, first compound 10 µM
[23] = second compound 3.16 µM, first compound 0.316 µM
[24] = second compound 3.16 µM, first compound 1 µM
[25] = second compound 3.16 µM, first compound 3.16 µM
[26] = second compound 3.16 µM, first compound 10 µM
[27] = second compound 10 µM, first compound 0.316 µM
[28] = second compound 10 µM, first compound 1 µM
[29] = second compound 10 µM, first compound 3.16 µM
[30] = second compound 10 µM, first compound 10 µM
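Further: spheroids exposed to agents for 7 days.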

| Compound | IC50 (second compound 0.1 µM) | IC50 (second compound 0.316 µM) | IC50 (second compound 1 µM) | IC50 (second compound 3.16 µM) | IC50 (second compound 10 µM) | viability, T/C [1] | viability, T/C [2] | viability, T/C [3] | viability, T/C [4] | viability, T/C [5] | viability, T/C [6] | viability, T/C [7] | viability, T/C [8] | viability, T/C [9] | viability, T/C [10] | viability, T/C [11] | viability, T/C [12] | viability, T/C [13] | viability, T/C [14] | viability, T/C [15] | also measured |
| --- | --- | --- | --- | --- | --- | --- | --- | --- | --- | --- | --- | --- | --- | --- | --- | --- | --- | --- | --- | --- | --- |
| CC(C)n1nc(-c2ccc3oc(N)nc3c2)c2c(N)ncnc21 + COc1cc2nc(C)nc(NC(C)c3cc(N)cc(C(F)(F)F)c3)c2cc1OC1CCOC1 | 0.0591 µM | 0.049 µM | 0.0365 µM | 0.0259 µM | < 0.000316 µM | 54.5% | 45.5% | 54.2% | 43.7% | 50.2% | 42.1% | 48.5% | 40.8% | 18.1% | 13.7% | – | – | – | – | – | viability, T/C (second compound 0.1 µM, first compound 0.000316 µM): 101%; viability, T/C (second compound 0.1 µM, first compound 0.001 µM): 93.6%; viability, T/C (second compound 0.1 µM, first compound 0.00316 µM): 78%; viability, T/C (second compound 0.1 µM, first compound 0.01 µM): 70.4%; viability, T/C (second compound 0.316 µM, first compound 0.000316 µM): 95.1%; viability, T/C (second compound 0.316 µM, first compound 0.001 µM): 89.7%; viability, T/C (second compound 0.316 µM, first compound 0.00316 µM): 77.6%; viability, T/C (second compound 0.316 µM, first compound 0.01 µM): 66%; viability, T/C (second compound 1 µM, first compound 0.000316 µM): 90.5%; viability, T/C (second compound 1 µM, first compound 0.001 µM): 88.6%; viability, T/C (second compound 1 µM, first compound 0.00316 µM): 76%; viability, T/C (second compound 1 µM, first compound 0.01 µM): 66.4%; viability, T/C (second compound 3.16 µM, first compound 0.000316 µM): 85.2%; viability, T/C (second compound 3.16 µM, first compound 0.001 µM): 80.8%; viability, T/C (second compound 3.16 µM, first compound 0.00316 µM): 72.9%; viability, T/C (second compound 3.16 µM, first compound 0.01 µM): 59%; viability, T/C (second compound 10 µM, first compound 0.000316 µM): 13.7%; viability, T/C (second compound 10 µM, first compound 0.001 µM): 14.8%; viability, T/C (second compound 10 µM, first compound 0.00316 µM): 25.4%; viability, T/C (second compound 10 µM, first compound 0.01 µM): 22% |
| CC1(C)CCC(CN2CCN(c3ccc(C(=O)NS(=O)(=O)c4ccc(NCC5CCOCC5)c([N+](=O)[O-])c4)c(Oc4cnc5[nH]ccc5c4)c3)CC2)=C(c2ccc(Cl)cc2)C1 + COc1cc2nc(C)nc(NC(C)c3cc(N)cc(C(F)(F)F)c3)c2cc1OC1CCOC1 | 6.37 µM | 5.61 µM | 2.8 µM | 2.08 µM | < 0.0316 µM | 99.9% | 100% | 93.7% | 100% | 93.1% | 88% | 81.4% | 85.4% | 11.2% | 14.5% | 92.4% | 97.4% | 66.2% | 39.6% | 94.3% | viability, T/C [16]: 93.7%; viability, T/C [17]: 59.4%; viability, T/C [18]: 40.6%; viability, T/C [19]: 94.6%; viability, T/C [20]: 87.5%; viability, T/C [21]: 45.6%; viability, T/C [22]: 27.2%; viability, T/C [23]: 91.8%; viability, T/C [24]: 74.6%; viability, T/C [25]: 36%; viability, T/C [26]: 28.6%; viability, T/C [27]: 19%; viability, T/C [28]: 26.2%; viability, T/C [29]: 27.2%; viability, T/C [30]: 18.3% |
| COc1cc2nccc(Oc3ccc(NC(=O)C4(C(=O)Nc5ccc(F)cc5)CC4)cc3)c2cc1OC + COc1cc2nc(C)nc(NC(C)c3cc(N)cc(C(F)(F)F)c3)c2cc1OC1CCOC1 | > 10 µM | 6.74 µM | 3.8 µM | 1.04 µM | < 0.0316 µM | 102% | 99.5% | 100% | 96.6% | 88.4% | 91.6% | 76.2% | 81.6% | 15.8% | 4.08% | 89.8% | 79.3% | 56.6% | 59.6% | 90.2% | viability, T/C [16]: 74.8%; viability, T/C [17]: 52.6%; viability, T/C [18]: 48.7%; viability, T/C [19]: 83.8%; viability, T/C [20]: 75%; viability, T/C [21]: 50.3%; viability, T/C [22]: 44.2%; viability, T/C [23]: 70.4%; viability, T/C [24]: 52.4%; viability, T/C [25]: 16.7%; viability, T/C [26]: 9.46%; viability, T/C [27]: 7.08%; viability, T/C [28]: 16.8%; viability, T/C [29]: 0.92%; viability, T/C [30]: 0.22% |
